In brackets after ≈: the same amount, converted by molar mass. Structures can show the parent of a compound that is named as a salt. Where two headings read alike, the source gives them in different places.
Tests used:
physchem [1] = conditions: 25 °C, pH 7.4, aqueous buffer, kinetic from dmso stock
Description: Solubility Test Procedure I:
(§1) A 50 mmol stock solution for each test compound was prepared using dimethyl sulfoxide. From this stock solution, a working solution of 1 mmol was prepared by diluting with dimethyl sulfoxide. The working solution of 1 mmol was then serially diluted using dimethyl sulfoxide. Then, 5-20 μl of stock solution is added to 1 ml of phosphate buffer solution of pH 7.4. The solution was then stirred for 4 h at 25° C. in order to reach equilibrium. After this incubation period, the solution was filtered using 0.45 micron PVDF injector filters to remove the insoluble fraction of the compound and subsequently filtrate is taken for quantification using UV Detector. The concentration of test sample was calculated using the linearity/calibration curve.

[2] = 4 h, pH 7.4
Description: Solubility Test Procedure I:
as §1

[3] = Kinetic solubility (Solubility Test Procedure I); conditions: for Increase in solubility compare to fulvestrant (Fold): kinetic aqueous solubility at pH 7.4; for solubility at 4 h: phosphate buffer, 25 °C, pH 7.4, aqueous buffer, kinetic from dmso stock
Description: Solubility Test Procedure I:
as §1

physchem [4] = conditions: thermodynamic from solid
Description: Solubility Test Procedure II:
(§2) Stock solutions of the test compounds and fulvestrant were prepared in phosphate buffered saline (PBS) pH 7.4 and sodium acetate buffer pH 4.0, which was incubated for 24 h at room temperature with constant mixing at 100 rpm in the same tube. After incubation, the tubes were centrifuged for 20 min. at 10000 rpm. Later 200 μL of sample was taken and filtered. The filtrate was analysed by HPLC-UV against 0.0012 mg/ml, 0.037 mg/mL, 0.3 mg/ml, 0.1 mg/ml and 1 mg/ml of dimethylsulfoxide (DMSO) stock.
(§3) Solubility (μg/ml)=[Peak area of sample/Peak area of standard]×Concentration of standard % Aqueous solubility: [Test solubility (μg/ml)/incubation concentration (μg/ml)]×100

[5] = Thermodynamic solubility (Solubility Test Procedure II); conditions: for solubility thermodynamic at 24 h: thermodynamic from solid
Description: Solubility Test Procedure II:
as §2, §3

[6] = pH 4, aqueous buffer, Thermodynamic solubility (mg/mL) pH 4.0, sodium acetate buffer pH 4.0, 24 h room temperature, test compound concentration 1 mg/mL

CN(C)CC(=O)Oc1ccc2c(c1)C[C@@H](CCCCCCCCC[S+]([O-])CCCC(F)(F)C(F)(F)F)[C@@H]1[C@@H]2CC[C@]2(C)[C@@H](O)CC[C@@H]12 (stereo partly drawn) [Example 1, (7R,8R,9S,13S,14S,17S)-17-hydroxy-13-methyl-7-(9-((4,4,5,5,5-pentafluoropentyl)sulfinyl)nonyl)-7,8,9,11,12,13,14,15,16,17-decahydro-6H-cyclopenta[a]phenanthren-3-yl dimethylglycinate]
solubility at 4 h (physchem [1]): 0.04 µM (≈ 0.0277 µg/mL) | Increase in solubility compare to fulvestrant (Fold) [2]: 8 Fold

C[C@]12CC[C@@H]3c4ccc(OC(=O)CN5CCCCC5)cc4C[C@@H](CCCCCCCCC[S+]([O-])CCCC(F)(F)C(F)(F)F)[C@H]3[C@@H]1CC[C@@H]2O (stereo partly drawn) [Example 3, (7R,8R,9S,13S,14S,17S)-17-hydroxy-13-methyl-7-(9-((4,4,5,5,5-pentafluoropentyl)sulfinyl)nonyl)-7,8,9,11,12,13,14,15,16,17-decahydro-6H-cyclopenta[a]phenanthren-3-yl 2-(piperidin-1-yl)acetate hydrochloride]
Increase in solubility compare to fulvestrant (Fold) [3]: 669 Fold | solubility at 4 h [3]: 3.3 µM

CN1CCN(C(=O)Oc2ccc3c(c2)C[C@@H](CCCCCCCCC[S+]([O-])CCCC(F)(F)C(F)(F)F)[C@@H]2[C@@H]3CC[C@]3(C)[C@@H](O)CC[C@@H]23)CC1 (stereo partly drawn) [Example 4, (7R,8R,9S,13S,14S,17S)-17-hydroxy-13-methyl-7-(9-((4,4,5,5,5-pentafluoropentyl)sulfinyl)nonyl)-7,8,9,11,12,13,14,15,16,17-decahydro-6H-cyclopenta[a]phenanthren-3-yl 4-methylpiperazine-1-carboxylate]
solubility thermodynamic at 24 h (physchem [4]; [6]): 790 µg/mL (≈ 1080 µM) | Increase in solubility compare to fulvestrant (Fold) [3]: 97 Fold | solubility at 4 h [3]: 0.5 µM (≈ 0.366 µg/mL)

C[C@]12CC[C@@H]3c4ccc(OC(=O)CCC(=O)O)cc4C[C@@H](CCCCCCCCC[S+]([O-])CCCC(F)(F)C(F)(F)F)[C@H]3[C@@H]1CC[C@@H]2O (stereo partly drawn) [Example 5, 4-(((7R,8R,9S,13S,14S,17S)-17-hydroxy-13-methyl-7-(9-((4,4,5,5,5-pentafluoropentyl)sulfinyl)nonyl)-7,8,9,11,12,13,14,15,16,17-decahydro-6H-cyclopenta[a]phenanthren-3-yl)oxy)-4-oxobutanoic acid]
solubility at 4 h (physchem [1]): 1.4 µM (≈ 0.99 µg/mL) | Increase in solubility compare to fulvestrant (Fold) [2]: 295 Fold

C[C@]12CC[C@@H]3c4ccc(OC(=O)c5ccccc5O)cc4C[C@@H](CCCCCCCCC[S+]([O-])CCCC(F)(F)C(F)(F)F)[C@H]3[C@@H]1CC[C@@H]2O (stereo partly drawn) [Example 6, (7R,8R,9S,13S,14S,17S)-17-hydroxy-13-methyl-7-(9-((4,4,5,5,5-pentafluoropentyl)sulfinyl)nonyl)-7,8,9,11,12,13,14,15,16,17-decahydro-6H-cyclopenta[a]phenanthren-3-yl 2-hydroxybenzoate]
Increase in solubility compare to fulvestrant (Fold) [3]: 562 Fold | solubility at 4 h [3]: 2.7 µM (≈ 1.96 µg/mL)

CCOP(=O)(OCC)Oc1ccc2c(c1)C[C@@H](CCCCCCCCC[S+]([O-])CCCC(F)(F)C(F)(F)F)[C@@H]1[C@@H]2CC[C@]2(C)[C@@H](O)CC[C@@H]12 (stereo partly drawn) [Example 7, diethyl ((7R,8R,9S,13S,14S,17S)-17-hydroxy-13-methyl-7-(9-((4,4,5,5,5-pentafluoropentyl)sulfinyl)nonyl)-7,8,9,11,12,13,14,15,16,17-decahydro-6H-cyclopenta[a]phenanthren-3-yl) phosphate]
Increase in solubility compare to fulvestrant (Fold) [3]: 35 Fold | solubility at 4 h [3]: 0.2 µM

C[C@]12CC[C@@H]3c4ccc(OC(=O)CN5CCCC5)cc4C[C@@H](CCCCCCCCC[S+]([O-])CCCC(F)(F)C(F)(F)F)[C@H]3[C@@H]1CC[C@@H]2O (stereo partly drawn) [Example 8, (7R,8R,9S,13S,14S,17S)-17-hydroxy-13-methyl-7-(9-((4,4,5,5,5-pentafluoropentyl)sulfinyl)nonyl)-7,8,9,11,12,13,14,15,16,17-decahydro-6H-cyclopenta[a]phenanthren-3-yl 2-(pyrrolidin-1-yl)acetate]
solubility at 4 h (physchem [1]): 17.1 µM (≈ 12.3 µg/mL) | Increase in solubility compare to fulvestrant (Fold) [2]: 3500 Fold

C[C@]12CC[C@@H]3c4ccc(OC(=O)N5CCC(N6CCCCC6)CC5)cc4C[C@@H](CCCCCCCCC[S+]([O-])CCCC(F)(F)C(F)(F)F)[C@H]3[C@@H]1CC[C@@H]2O (stereo partly drawn) [Example 9, (7R,8R,9S,13S,14S,17S)-17-hydroxy-13-methyl-7-(9-((4,4,5,5,5-pentafluoropentyl)sulfinyl)nonyl)-7,8,9,11,12,13,14,15,16,17-decahydro-6H-cyclopenta[a]phenanthren-3-yl[1,4′-bipiperidine]-1′-carboxylate]
solubility thermodynamic at 24 h (physchem [4]; [6]): 700 µg/mL (≈ 874 µM) | Increase in solubility compare to fulvestrant (Fold) [3]: 22 Fold | solubility at 4 h [3]: 0.1 µM (≈ 0.0801 µg/mL)

C[C@]12CC[C@@H]3c4ccc(OC(=O)CN5CCOCC5)cc4C[C@@H](CCCCCCCCC[S+]([O-])CCCC(F)(F)C(F)(F)F)[C@H]3[C@@H]1CC[C@@H]2O (stereo partly drawn) [Example 10, (7R,8R,9S,13S,14S,17S)-17-hydroxy-13-methyl-7-(9-((4,4,5,5,5-pentafluoropentyl)sulfinyl)nonyl)-7,8,9,11,12,13,14,15,16,17-decahydro-6H-cyclopenta[a]phenanthren-3-yl 2-morpholinoacetate]
solubility at 4 h (physchem [1]): 0.2 µM (≈ 0.147 µg/mL) | Increase in solubility compare to fulvestrant (Fold) [2]: 32 Fold

CN1CCC(CC(=O)Oc2ccc3c(c2)C[C@@H](CCCCCCCCC[S+]([O-])CCCC(F)(F)C(F)(F)F)[C@@H]2[C@@H]3CC[C@]3(C)[C@@H](O)CC[C@@H]23)CC1 (stereo partly drawn) [Example 15, (7R,8R,9S,13S,14S,17S)-17-hydroxy-13-methyl-7-(9-((4,4,5,5,5-pentafluoropentyl)sulfinyl)nonyl)-7,8,9,11,12,13,14,15,16,17-decahydro-6H-cyclopenta[a]phenanthren-3-yl 2-(1-methylpiperidin-4-yl)acetate]
solubility thermodynamic at 24 h (physchem [4]; pH 4, aqueous buffer): 630 µg/mL (≈ 845 µM)

CN1CCCN(C(=O)Oc2ccc3c(c2)C[C@@H](CCCCCCCCC[S+]([O-])CCCC(F)(F)C(F)(F)F)[C@@H]2[C@@H]3CC[C@]3(C)[C@@H](O)CC[C@@H]23)CC1 (stereo partly drawn) [Example 19, (7R,8R,9S,13S,14S,17S)-17-hydroxy-13-methyl-7-(9-((4,4,5,5,5-pentafluoropentyl)sulfinyl)nonyl)-7,8,9,11,12,13,14,15,16,17-decahydro-6H-cyclopenta[a]phenanthren-3-yl 4-methyl-1,4-diazepane-1-carboxylate]
solubility thermodynamic at 24 h (physchem [4]; pH 4, aqueous buffer, Thermodynamic solubility (mg/mL) pH 4.0, sodium acetate buffer pH 4.0, 24 h room temperature, test compound concentration 2 mg/mL): 1050 µg/mL (≈ 1410 µM)

C[C@]12CC[C@@H]3c4ccc(OP(=O)(O)O)cc4C[C@@H](CCCCCCCCC[S+]([O-])CCCC(F)(F)C(F)(F)F)[C@H]3[C@@H]1CC[C@@H]2O (stereo partly drawn) [Example 20, (7R,8R,9S,13S,14S,17S)-17-hydroxy-13-methyl-7-(9-((4,4,5,5,5-pentafluoropentyl)sulfinyl)nonyl)-7,8,9,11,12,13,14,15,16,17-decahydro-6H-cyclopenta[a]phenanthren-3-yl dihydrogen phosphate]
solubility thermodynamic (physchem [4]; pH 4, aqueous buffer): 740 µg/mL | solubility thermodynamic (physchem [4]; pH 7.4, aqueous buffer): 1220 µg/mL

C[C@]12CC[C@@H]3c4ccc(OP(=O)(O)O)cc4C[C@@H](CCCCCCCCC[S+]([O-])CCCC(F)(F)C(F)(F)F)[C@H]3[C@@H]1CC[C@@H]2O (stereo partly drawn) [Example 21, (7R,8R,9S,13S,14S,17S)-17-hydroxy-13-methyl-7-(9-((4,4,5,5,5-pentafluoropentyl)sulfinyl)nonyl)-7,8,9,11,12,13,14,15,16,17-decahydro-6H-cyclopenta[a]phenanthren-3-yl dihydrogen phosphate disodium]
solubility thermodynamic at 24 h (physchem [4]; pH 7.4, aqueous buffer, Thermodynamic solubility (mg/mL) pH 7.4, PBS pH 7.4, 24 h room temperature, test compound concentration 5 mg/mL): > 5000 µg/mL

C[C@]12CC[C@@H]3c4ccc(OC(=O)N5CCC(N6CCCCC6)CC5)cc4C[C@@H](CCCCCCCCC[S+]([O-])CCCC(F)(F)C(F)(F)F)[C@H]3[C@@H]1CC[C@@H]2O (stereo partly drawn) [Example 29, (7R,8R,9S,13S,14S,17S)-17-hydroxy-13-methyl-7-(9-((4,4,5,5,5-pentafluoropentyl)sulfinyl)nonyl)-7,8,9,11,12,13,14,15,16,17-decahydro-6H-cyclopenta[a]phenanthren-3-yl [1,4′-bipiperidine]-1′-carboxylate hydrochloride]
Thermodynamic solubility (mg/mL) pH 4.0 ([5]; sodium acetate buffer pH 4.0, 24 h room temperature, test compound concentration 1 mg/mL, hydrochloride): 0.75 mg/mL

C[C@]12CCC3c4ccc(OCOP(=O)(O)O)cc4C[C@@H](CCCCCCCCC[S+]([O-])CCCC(F)(F)C(F)(F)F)[C@H]3[C@@H]1CC[C@@H]2O (stereo partly drawn) [Example 44, ((7R,8R,13S,14S,17S)-17-hydroxy-13-methyl-7-(9-(4,4,5,5,5-pentafluoropentylsulfinyl)nonyl)-7,8,9,11,12,13,14,15,16,17-decahydro-6H-cyclopenta[a]phenanthren-3-yloxy)methyl dihydrogen phosphate]
solubility thermodynamic at 24 h (physchem [4]; pH 4, aqueous buffer): > 1000 µg/mL | solubility thermodynamic at 24 h (physchem [4]; pH 7.4, aqueous buffer): > 15000 µg/mL

CC(C)[C@H](NC(=O)Oc1ccc2c(c1)C[C@@H](CCCCCCCCC[S+]([O-])CCCC(F)(F)C(F)(F)F)[C@@H]1C2CC[C@]2(C)[C@@H](O)CC[C@@H]12)C(=O)O (stereo partly drawn) [Example 45, (2S)-2-(((7R,8R,13S,14S,17S)-17-hydroxy-13-methyl-7-(9-(4,4,5,5,5-pentafluoropentylsulfinyl)nonyl)-7,8,9,11,12,13,14,15,16,17-decahydro-6H-cyclopenta[a]phenanthren-3-yloxy)carbonylamino)-3-methylbutanoic acid]
solubility thermodynamic (physchem [4]; pH 7.4, aqueous buffer): 1250 µg/mL (≈ 1670 µM)

C[C@]12CC[C@@H]3c4ccc(O)cc4C[C@@H](CCCCCCCCC[S+]([O-])CCCC(F)(F)C(F)(F)F)[C@H]3[C@@H]1CC[C@@H]2O (some centres unmarked) [Fulvestrant]
solubility thermodynamic at 24 h ([5]; phosphate buffered saline (PBS), pH 7.4, aqueous buffer): 1.2 µg/mL (≈ 1.98 µM) | solubility thermodynamic at 24 h ([5]; sodium acetate buffer, pH 4, aqueous buffer): 2.9 µg/mL (≈ 4.78 µM) | solubility at 4 h [3]: 0.005 µM (≈ 0.00303 µg/mL)

Reference: US20210253626A1, “PRODRUGS OF FULVESTRANT” (KASHIV BIOSCIENCES, LLC, priority 2018, published 2021)
